Source: paper PMC12790326, “Water Networks as Hydrophobic Recognition Motifs in Proteins” (Angewandte Chemie (International Ed. in English), 2025)

Assays:
[1] = molecular target: T1, BRD4(1) (Homo sapiens, UniProt O60885); test: TR-FRET binding assay: displacement of tetra-acetylated histone H4 peptide; conditions: for loss of efficacy/affinity with respect to 1: TR-FRET; for IC50: displacement of tetra-acetylated H4 peptide from BRD4(1), duplicate, best fit; for TR-FRET IC50 (fold change): fold change of IC50 relative to compound 1
T1 construct: encodes residues 44-168; His6 (TEV-cleavable); made in house; host or cells: Escherichia coli BL21 (DE3)
Excerpt: Supplementary Information
Figure S3: Normalized TR-FRET assay showing dose-dependently displacement of a tetra-acetylated H4 peptide from Brd4(BD1) in the presence of compounds 2-5. IC50 values corresponding to best fit are reported inside each graph. […]
simultaneously. Each dot represents the average of two independent replicas, and the error bars correspond to their standard deviation.
The BRD4(1) construct was a kind donation of Dr. Alessio Ciulli (University of Dundee, UK) and it encodes residues 44-168. The cloned his-tagged BRD4(1) was expressed in Escherichia coli BL21 (DE3).
For biophysical assays, the protein puriﬁcation procedure consisted of immobilised metal ion aﬃnity chromatography (IMAC), followed by TEV cleavage of the histidine tag and a second IMAC chromatography. For crystallisation assays, the puriﬁcation protocol involved IMAC chromatography, followed by TEV cleavage and size-exclusion chromatography for crystallography. The expression and puriﬁcation has already been described.[25]
The Time-Resolved Fluorescence Resonance Energy Transfer (TR-FRET) binding assay used to measure the disruption of the interaction of BRD4(1) with [Lys(Ac)5/8/12/16]-Histone H4 (1-21)-GGK(Biotin) (Eurogentec) with compounds 1-5, was performed according to a previously described protocol.[26] The experiments were performed in 384-well black plates (NUNC) in a buﬀer composed of 50 mM HEPES, pH 7.4, 50 mM NaCl, 400 mM KF (Sigma), 0.5 mM CHAPS (Sigma), and 0.05% BSA (Sigma) in a ﬁnal volume of 100 μL. BRD4(1) (100 nM) protein domain was mixed with 200 nM of the biotin-labelled histone peptides and incubated for 30 min at room temperature. Molecules were prepared in 250 mM HEPES, pH 7.4, 250 mM NaCl, and 20% DMSO at a single concentration to give a ﬁnal concentration of 50 μM 1% DMSO in a total well volume of 100 μL and incubated for 1 h. Molecules showing inhibition were then screened in duplicate at several serial dilutions. Inhibition (%) at 50 μM was calculated with […]
where the negative control was run without BRD4(1) and inhibitor and positive control, without inhibitor to give the bottom signal and top signal, respectively. The protein−peptide complexes at equilibrium were then detected with 2 nM Eu3+ cryptate-conjugated streptavidin (CisBio) and 10 nM anti-his6-XL665 (CisBio). Titration of a known inhibitor ((+)-JQ1) was used as the control for each experiment. IC50 values were calculated by plotting the log [competitor/inhibitor] versus the mean normalised response data from a single experiment measured in duplicate and ﬁtting it to a four-parameter equation with variable Hill slope, using the GraphPad Prism software: […]
The plates were measured in a CLARIOStar reader (BMG Labtech) using the homogeneous time-resolved ﬂuorescence module (excitation, 337 nm with 200 ﬂashes; emission, 620 and 665 nm). The 665 nm/620 nm ratios were converted to % normalised TR-FRET ratio = top ratio signal as 100% and […]
bottom ratio signal as 0% to normalise experiments performed at diﬀerent days. Dose−response […]
2. Data Collection and Structure Solution.
X-ray diffraction data were collected on beamlines I03 and I04-1 at the Diamond Light Source. Data were integrated with XDS[27] and scaled with AIMLESS[28] as part of the XIA2 and autoPROC auto-processing pipelines.[29,30] Initial refinement and map calculation was carried out with DIMPLE[31] using a ligand-free version of BRD4(1) (PDB 3MXF[25]) as starting model. Ligand restraints were generated with ACEDRG[32] and GRADE.[33] Refinement and model building was performed with REFMAC[34] and COOT,[35] respectively. Structure validation was performed with MolProbity.[36] Final models and structure factors have been deposited with PDB accession codes 9QOB and 9QNV. Data […]
1) Protein and Ligand Preparation
Ligand 1 was co-crystallized in the previous study[9] with PDB code 6ZF9. The ligand pose was extracted from the PDB and missing hydrogens were added with MOE.[37] […]

[2] = tested on: PDE4D; test: PDE4D inhibition (literature IC50); type: biochemical; conditions: gain from the phenyl ring of 3DE (82 µM to 270 nM)
[3] = tested on: PDE4D; design: method as in PMID 15685167; conditions: with the phenyl ring; the analogue without it has 82 µM; read-out: affinity for PDE4D (IC50); cited from earlier work

Structure (SMILES)	loss of efficacy/affinity with respect to 1 [1]	IC50 [1]	TR-FRET IC50 (fold change) [1]	ΔΔG bind [2]	IC50 [3]
Cc1nnc2scc(-c3ccccc3)n12 [Compound 2]	2 fold	54 µM	2 x		
CCOC(=O)c1c(C)nn(-c2ccccc2)c1C [Compound 3DE]				3.4 kcal/mol	0.27 µM
COCc1nnc2scc(-c3ccccc3)n12 [Compound 3]	3 fold	85 µM	3.3 x		
OCc1nnc2scc(-c3ccccc3)n12 [Compound 4]	2.5 fold	65 µM	2.5 x		
